Measured values: ChEMBL document CHEMBL5150029, “Conformationally Defined Rexinoids for the Prevention of Inflammation and Nonmelanoma Skin Cancers” (J Med Chem, 2022)
The source made the active and inactive calls. No cut-off for these calls is given here.

How the values were obtained:
[1] = Induction of triglyceride level in Sprague-Dawley rat at 150 mg/kg in diet for 7 days relative to control; format: functional; conditions: time 7 day
[2] = Induction of triglyceride level in Sprague-Dawley rat at 200 mg/kg in diet for 7 days relative to control (reference value: 0 %); format: functional; conditions: time 7 day
[3] = Induction of triglyceride level in Sprague-Dawley rat at 200 mg/kg in diet for 7 days (reference value: 89 +/- 10 mg/dl); format: functional; conditions: time 7 day
[4] = target: T1, Retinoic acid receptor RXR-alpha (Homo sapiens) (UniProt P19793); conditions: filed as agonist
T1 sequence (whole entry): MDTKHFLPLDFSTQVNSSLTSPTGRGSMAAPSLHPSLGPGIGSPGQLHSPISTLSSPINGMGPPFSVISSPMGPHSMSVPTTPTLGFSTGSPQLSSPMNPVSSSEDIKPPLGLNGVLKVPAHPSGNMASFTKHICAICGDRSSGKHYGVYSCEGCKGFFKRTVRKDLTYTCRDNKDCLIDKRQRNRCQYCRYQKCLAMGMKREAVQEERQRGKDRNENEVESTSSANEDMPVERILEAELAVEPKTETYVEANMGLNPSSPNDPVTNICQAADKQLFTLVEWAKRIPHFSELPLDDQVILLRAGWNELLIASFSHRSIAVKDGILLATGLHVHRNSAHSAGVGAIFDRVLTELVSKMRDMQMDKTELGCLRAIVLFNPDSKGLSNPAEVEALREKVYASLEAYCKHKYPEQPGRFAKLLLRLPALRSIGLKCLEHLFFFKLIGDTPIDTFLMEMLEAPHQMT
Description: Binding affinity to human RXRalpha LBD (T225 to T462 residues) assessed as change in entropy by isothermal titration calorimetry

[5] = target: T2, Retinoic acid receptor RXR-alpha (Homo sapiens, UniProt P19793); test: Agonist activity at human GAL4-fused RXRalpha LBD (T225 to T462 residues) expressed in HEK293 cells incubated for 24 hrs by Dual-Glo luciferase assay; format: cell-based
T2 sequence (P19793 whole entry): T1 sequence (whole entry)

[6] = target: T1, Retinoic acid receptor RXR-alpha (Homo sapiens); conditions: filed as agonist; remark: listed apart in the source
Description: Binding affinity to human RXRalpha LBD (T225 to T462 residues) assessed as gibbs free energy change by isothermal titration calorimetry

[7] = target: T1, Retinoic acid receptor RXR-alpha (Homo sapiens); conditions: filed as agonist; remark: listed apart in the source
Description: Binding affinity to human RXRalpha LBD (T225 to T462 residues) assessed as change in enthalpy by isothermal titration calorimetry

[8] = target: T2, Retinoic acid receptor RXR-alpha; test: Binding affinity to human RXRalpha LBD (T225 to T462 residues) assessed as binding constant by isothermal titration calorimetry
[9] = target: T2, Retinoic acid receptor RXR-alpha; test: Binding affinity to human RXRalpha LBD (T225 to T462 residues) by fluorescence quenching assay
Mus musculus [10] = test: Prevention of UVB-induced carcinogenesis in Ptch+/- / SHK-1 mouse assessed as reduction in tumor number at 20 mg/kg measured after twice a week of UVB irradiation for 34 weeks; format: functional
Epithelial cell [11] = test: Upregulation of RBP1 gene expression in human organotypic epithelial cells at 0.2 uM incubated for 9 days with replacement of fresh compounds every other day by qPCR analysis; format: functional, cell-based; conditions: time 9.0 day
Epithelial cell [12] = test: Downregulation of MCM7 gene expression in human organotypic epithelial cells at 0.2 uM incubated for 9 days with replacement of fresh compounds every other day by qPCR analysis; format: functional, cell-based; conditions: time 9.0 day
Epithelial cell [13] = test: Upregulation of RARB gene expression in human organotypic epithelial cells at 0.2 uM incubated for 9 days with replacement of fresh compounds every other day by qPCR analysis; format: functional, cell-based; conditions: time 9.0 day
RAW264.7 [14] = test: Antiinflammatory activity in LPS-induced mouse RAW264.7 cells assessed as reduction in IL-6 level at 10 uM after 6 hrs by RT-PCR analysis; format: functional, cell-based
RAW264.7 [15] = test: Antiinflammatory activity in LPS-induced mouse RAW264.7 cells assessed as reduction in IL-1beta level at 10 uM after 6 hrs by RT-PCR analysis; format: functional, cell-based
Epithelial cell [16] = test: Upregulation of STRA6 gene expression in human organotypic epithelial cells at 0.2 uM incubated for 9 days with replacement of fresh compounds every other day by qPCR analysis; format: functional, cell-based; conditions: time 9.0 day
Epithelial cell [17] = test: Upregulation of LRAT gene expression in human organotypic epithelial cells at 0.2 uM incubated for 9 days with replacement of fresh compounds every other day by qPCR analysis; format: functional, cell-based; conditions: time 9.0 day
Epithelial cell [18] = test: Downregulation of ACER1 gene expression in human organotypic epithelial cells at 0.2 uM incubated for 9 days with replacement of fresh compounds every other day by qPCR analysis; format: functional, cell-based; conditions: time 9.0 day
RAW264.7 [19] = test: Antiinflammatory activity in LPS-induced mouse RAW264.7 cells assessed as reduction in CCL5 level at 10 uM after 6 hrs by RT-PCR analysis; format: functional, cell-based
Epithelial cell [20] = test: Upregulation of CRABP2 gene expression in human organotypic epithelial cells at 0.2 uM incubated for 9 days with replacement of fresh compounds every other day by qPCR analysis; format: functional, cell-based; conditions: time 9.0 day
Epithelial cell [21] = test: Upregulation of RARG gene expression in human organotypic epithelial cells at 0.2 uM incubated for 9 days with replacement of fresh compounds every other day by qPCR analysis; format: functional, cell-based; conditions: time 9.0 day
RAW264.7 [22] = test: Antiinflammatory activity in LPS-induced mouse RAW264.7 cells assessed as reduction in Csf3 level at 10 uM after 6 hrs by RT-PCR analysis; format: functional, cell-based
RAW264.7 [23] = test: Antiinflammatory activity in LPS-induced mouse RAW264.7 cells assessed as reduction in CCL22 level at 10 uM after 6 hrs by RT-PCR analysis; format: functional, cell-based
Epithelial cell [24] = test: Upregulation of RDH10 gene expression in human organotypic epithelial cells at 0.2 uM incubated for 9 days with replacement of fresh compounds every other day by qPCR analysis; format: functional, cell-based; conditions: time 9.0 day
Mus musculus [25] = test: Prevention of UVB-induced carcinogenesis in Ptch+/- / SHK-1 mouse assessed as reduction in tumor number at 24 mg/kg measured after twice a week of UVB irradiation for 34 weeks (reference value: 8.16 +/- 1.87); format: functional
RAW264.7 [26] = test: Antiinflammatory activity in LPS-induced mouse RAW264.7 cells assessed as reduction in IL27 level at 10 uM after 6 hrs by RT-PCR analysis; format: functional, cell-based
RAW264.7 [27] = test: Antiinflammatory activity in LPS-induced mouse RAW264.7 cells assessed as reduction in Saa3 level at 10 uM after 6 hrs by RT-PCR analysis; format: functional, cell-based
Mus musculus [28] = test: Prevention of UVB-induced carcinogenesis in Ptch+/- / SHK-1 mouse assessed as reduction in tumor number at 24 mg/kg measured after twice a week of UVB irradiation for 34 weeks (reference value: 100 %); format: functional; set-up: scale not given: the % may be the effect or the level left
Epithelial cell [29] = test: Downregulation of LOR gene expression in human organotypic epithelial cells at 0.2 uM incubated for 9 days with replacement of fresh compounds every other day by qPCR analysis; format: functional, cell-based; conditions: time 9.0 day
Mus musculus [30] = test: Prevention of UVB-induced carcinogenesis in Ptch+/- / SHK-1 mouse assessed as reduction in tumor number at 25 mg/kg measured after twice a week of UVB irradiation for 34 weeks (reference value: 100 %); format: functional; set-up: scale not given: the % may be the effect or the level left
Mus musculus [31] = test: Prevention of UVB-induced carcinogenesis in Ptch+/- / SHK-1 mouse assessed as reduction in tumor number at 25 mg/kg measured after twice a week of UVB irradiation for 34 weeks (reference value: 8.16 +/- 1.87); format: functional
[32] = Induction of triglyceride level in Sprague-Dawley rat at 60 mg/kg in diet for 7 days relative to control; format: functional; conditions: time 7 day

| Structure (SMILES) | Activity [2] | Activity [3] | TdeltaS [4] | EC50 [5] | deltaG [6] | deltaH [7] | Kd [8] | Kd [9] | Activity (RAW264.7 [14]) | Activity (RAW264.7 [15]) | Activity (RAW264.7 [19]) | Activity (RAW264.7 [22]) | Activity (RAW264.7 [23]) | Activity (RAW264.7 [26]) | Activity (RAW264.7 [27]) | other results |
| --- | --- | --- | --- | --- | --- | --- | --- | --- | --- | --- | --- | --- | --- | --- | --- | --- |
| C=C(c1ccc(C(=O)O)cc1)c1cc2c(cc1C)C(C)(C)CCC2(C)C [BEXAROTENE] | – | – | – | – | – | – | – | – | – | – | – | – | – | – | – | Activity [1]: 350% |
| CCC(C)C1=C(CCC(C)C)/C(=C/C(C)=C\C=C\C(C)=C\C(=O)O)CCC1 (mixture of isomers) | 211% | 277 mg/dL | 2.38 kcal/mol | 23 nM | -7.5 kcal/mol | -5.1 kcal/mol | 3500 nM | 4.1 nM | – | – | – | – | – | – | – | – |
| CC(=C/C=C/C(C)=C/C(=O)O)/C=C1\CCCc2ccccc21 [UAB-30] | – | – | – | – | – | – | – | – | – | – | – | – | – | – | – | Activity (Mus musculus [10]): 5.4 |
| CCCC1=C(CCC(C)C)/C(=C/C(C)=C\C=C\C(C)=C\C(=O)O)CCC1 | 80% | 160 mg/dL | 0.38 kcal/mol | 61 nM | -7.8 kcal/mol | -7.4 kcal/mol | 2000 nM | 3.6 nM | Active | Active | Active | Active | Active | Active | Active | Activity (Epithelial cell [11]): Active; Activity (Epithelial cell [12]): Active; Activity (Epithelial cell [13]): Active; Activity (Epithelial cell [16]): Active; Activity (Epithelial cell [17]): Active; Activity (Epithelial cell [18]): Active; Activity (Epithelial cell [20]): Active; Activity (Epithelial cell [21]): Active; Activity (Epithelial cell [24]): Active; Activity (Mus musculus [25]): 3; Activity (Mus musculus [28]): 63%; Activity (Epithelial cell [29]): Active |
| CCCCC1=C(CCC(C)C)/C(=C/C(C)=C\C=C\C(C)=C\C(=O)O)CCC1 | 13% | 101 mg/dL | 0.76 kcal/mol | 210 nM | -7.5 kcal/mol | -6.8 kcal/mol | 3100 nM | 4.7 nM | Active | Active | Active | Active | Active | Active | Active | Activity (Mus musculus [30]): 82%; Activity (Mus musculus [31]): 1.44 |
| CC(=C/C=C/C(C)=C/C(=O)O)/C=C1\CCCC(CCC(C)C)=C1CCC(C)C | 20% | 107 mg/dL | – | – | – | – | – | – | Active | Active | Active | Active | Active | Active | Active | Activity (Epithelial cell [11]): Active; Activity (Epithelial cell [12]): Active; Activity (Epithelial cell [13]): Active; Activity (Epithelial cell [16]): Active; Activity (Epithelial cell [17]): Active; Activity (Epithelial cell [18]): Active; Activity (Epithelial cell [20]): Active; Activity (Epithelial cell [21]): Active; Activity (Epithelial cell [24]): Active; Activity (Epithelial cell [29]): Active |
| CC1=C(/C=C/C(C)=C\C=C\C(C)=C\C(=O)O)C(C)(C)CCC1 [ALITRETINOIN] | – | – | – | – | – | – | – | – | – | – | – | – | – | – | – | Activity [32]: 400% |
